Data reported in article PMC3610872, “Full and Partial Agonists of Thromboxane Prostanoid Receptor Unveil Fine Tuning of Receptor Superactive Conformation and G Protein Activation” (PLoS ONE, 2013).
Changes are numbered by the printed parent chain. Values joined by “and” are separate entries in the source; they are usually repeats but may differ in a detail not shown here. Identical values can stand only once.

Tests used:
[1] = molecular target: T1, double mutant E129V/E240V of human TP receptor (Homo sapiens, UniProt P21731, E129V/E240V); assay: Total inositol phosphate (IP) accumulation, E129V/E240V double mutant, rescue with SQ29,548; type: cell-based; settings: HEK293 cells, E129V/E240V double mutant after rescue with 1 µM SQ29,548 for 18 h; ±33%CV
T1 construct: expressed in transfected cells; host or cells: HEK293
T1 sequence (P21731 1-343 E129V/E240V): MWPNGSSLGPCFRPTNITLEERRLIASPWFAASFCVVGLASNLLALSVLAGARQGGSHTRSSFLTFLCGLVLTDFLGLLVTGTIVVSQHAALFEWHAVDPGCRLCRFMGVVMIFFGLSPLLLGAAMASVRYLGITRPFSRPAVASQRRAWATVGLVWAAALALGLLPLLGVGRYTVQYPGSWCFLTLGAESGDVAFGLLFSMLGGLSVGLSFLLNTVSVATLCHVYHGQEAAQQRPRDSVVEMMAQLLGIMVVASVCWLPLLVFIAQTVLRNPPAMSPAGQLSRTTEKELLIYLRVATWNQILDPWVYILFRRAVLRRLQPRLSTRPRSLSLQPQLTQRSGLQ
Protocol: Receptor expression and functional activity were monitored 48 hours after transfection. […] Heterologous competition studies involved concentrations of the indicated unlabeled ligands extending from 0.1 nM to 30 µM. After 30 min incubation at 25 °C, the reaction was stopped by aspiration of the medium, cells were washed with ice-cold PBS containing 0.2% (w/v) BSA and lysed in 0.5 N NaOH. Radioactivity was measured by liquid scintillation counting. Binding data were analyzed as described in Data and Statistical Analysis. Quantification of the total labeled inositol phosphates (IP) accumulation was performed using a conventional gravity flow column chromatography, as described previously, [19]. […] The total IP fraction was then eluted with 2 M ammonium formate/formic acid buffer at pH 5 and radioactivity determined by liquid scintillation counting. […]
All average results are presented as mean±S.E. When indicated, ANOVA followed by post-hoc test for multiple comparisons was performed. Data from radioligand binding were evaluated by a nonlinear, least-squares curve-fitting procedure using GraphPad Prism version 4, implemented with the n-ligand m-binding site model, as described in the LIGAND computer program. Concentration-response curves were evaluated using Prism 4, which use the four parameters logistic model as described in the ALLFIT program. […]

WT human TP receptor = molecular target: T2, WT human TP receptor (Homo sapiens, UniProt P21731); assay: [3H]SQ29,548 radioligand binding (mixed-type and heterologous competition), WT receptor; settings: HEK293 cells, competition vs 1 nM [3H]SQ29,548, 25°C 30 min, value ±%CV
T2 construct: expressed in transfected cells; host or cells: HEK293
T2 sequence (P21731 1-343): T1 sequence (P21731 1-343 E129V/E240V) with V129E, V240E
Protocol: (§1) Receptor expression and functional activity were monitored 48 hours after transfection. […] Heterologous competition studies involved concentrations of the indicated unlabeled ligands extending from 0.1 nM to 30 µM. After 30 min incubation at 25 °C, the reaction was stopped by aspiration of the medium, cells were washed with ice-cold PBS containing 0.2% (w/v) BSA and lysed in 0.5 N NaOH. Radioactivity was measured by liquid scintillation counting. Binding data were analyzed as described in Data and Statistical Analysis. Quantification of the total labeled inositol phosphates (IP) accumulation was performed using a conventional gravity flow column chromatography, as described previously, [19]. Briefly, the day before the assay, cells were labeled with 0,5 µCi of [myo-2-^3H]inositol (17 Ci/mmol) for 18–20 hours in serum-free, inositol-free DMEM containing 20 mM HEPES buffer, pH 7.4, and 0.5% (w/v) Albumax I. The day of the assay, media was replaced with serum-free, inositol-free DMEM containing 25 mM LiCl and cells stimulated for 30 min with the indicated agonists. After removal of the medium, cells were lysed with 10 mM formic acid and lysates were applied onto an anion exchange AG 1X-8 column, formate form, 200–400 mesh. The total IP fraction was then eluted with 2 M ammonium formate/formic acid buffer at pH 5 and radioactivity determined by liquid scintillation counting. Rescue experiments were performed essentially as above, except for a 18 hours incubation step with 1 µΜof […] followed by its removal by washing three times with ice-cold PBS containing 1 mM MgCl2 and 0.1 mM CaCl2 before starting the experiment.
(§2) All average results are presented as mean±S.E. When indicated, ANOVA followed by post-hoc test for multiple comparisons was performed. Data from radioligand binding were evaluated by a nonlinear, least-squares curve-fitting procedure using GraphPad Prism version 4, implemented with the n-ligand m-binding site model, as described in the LIGAND computer program. Concentration-response curves were evaluated using Prism 4, which use the four parameters logistic model as described in the ALLFIT program. Parameter errors are all expressed in percentage coefficient of variation (%CV) and calculated by simultaneous analysis of at least two different independent experiments performed in duplicate or triplicate. Parameter comparison has been performed on the base of the F test for extra sum of square principle. All curves shown are computer generated.
(§3) Thus, transfection conditions were adjusted to secure equivalent levels of receptor expression for WT and mutants as previously described, [17], [19]. […] All the experiments were conducted within this range of receptor expression, if not specified differently.

E240V mutant TP receptor = test system: E240V mutant TP receptor; parameters: method as in PMID 20383734; settings: E240V vs WT; cited from earlier work
[2] = molecular target: T3, E129V mutant human TP receptor (Homo sapiens, UniProt P21731, E129V); assay: [3H]SQ29,548 radioligand binding (mixed-type and heterologous competition), E129V mutant; settings: HEK293 cells
T3 construct: expressed in transfected cells; host or cells: HEK293
T3 sequence (P21731 1-343 E129V): T1 sequence (P21731 1-343 E129V/E240V) with V240E
Protocol: as §1, §2, §3

EC50 [1]: 1.66 nM
Ki (WT human TP receptor): 170 ± 13 nM
Ki ([2]; E129V, competition vs 1 nM [3H]SQ29,548, 25°C 30 min, value ±%CV): 16.3 ± 18 nM
Affinity ratio (Ki WT over Ki E129V) ([2]; WT vs E129V): 10 and 10.4
Structure (SMILES): CCCCC[C@H](O)/C=C/[C@@H]1[C@@H](C/C=C\CCCC(=O)O)[C@H]2CO[C@@H]1C2 (relative stereo) [U46619, [1R-[1α,4α,5β(Z),6α(1E,3S*)]]-7-[6-(3-hydroxy-1-octenyl)-2-oxabicyclo[2.2.1]hept-5-yl]-5-heptenoic acid]
Fold lower EC50 than WT, total IP formation (E240V mutant TP receptor): 10 fold
